Earlier results, collected in the PKSmart pharmacokinetics tables (Seal et al. 2025).

Experiments:
[1] = Lombardo et al. 2013, J Clin Pharmacol 53:178, doi 10.1177/0091270012440282; details: for fraction unbound: plasma; for Vd / clearance: in vivo, iv
[2] = Lombardo, Berellini, Obach 2018, Drug Metab Dispos 46:1466, doi 10.1124/dmd.118.082966; details: human; for MRT / Vd / clearance / half-life: in vivo, iv; for fraction unbound: plasma

SMILES	fraction unbound ([1]; rat)	MRT [2]	Vd [2]	clearance [2]	Vd ([1]; dog)	clearance ([1]; dog)	Vd ([1]; rat)	clearance ([1]; rat)	half-life [2]	fraction unbound [2]	Vd ([1]; monkey)	fraction unbound ([1]; dog)	clearance ([1]; monkey)	fraction unbound ([1]; monkey)
CN(Cc1cnc2nc(N)nc(N)c2n1)c1ccc(C(=O)NC(CCC(=O)O)C(=O)O)cc1 (stereo not drawn)	0.68	3.4 h	0.43 L/kg	0.126 L/h/kg										
CS(=O)(=O)OCCCCOS(C)(=O)=O	0.91	3.8 h	0.55 L/kg	0.144 L/h/kg	1 L/kg	1.16 L/h/kg	0.68 L/kg	0.3 L/h/kg	3.4 h					
CN1C(=O)NC(=O)C(C)(C2=CCCCC2)C1=O (stereo not drawn)		5.4 h	1.1 L/kg	0.204 L/h/kg			2.5 L/kg	2.44 L/h/kg	4.9 h	0.53				
Cn1c(=O)c2c(ncn2CC(O)CO)n(C)c1=O (stereo not drawn)		1.5 h	0.42 L/kg	0.288 L/h/kg			1.04 L/kg	1.48 L/h/kg	1.7 h					
C[C@@H](O)C1C(=O)N2C(C(=O)O)=C(SCCOC(N)=O)S[C@H]12 (stereo partly drawn)		0.67 h	0.3 L/kg		0.24 L/kg		0.14 L/kg		0.8 h	0.35	0.21 L/kg			
CNCC[C@@H](Oc1ccccc1C)c1ccccc1	0.11	1.5 h	0.85 L/kg	0.558 L/h/kg			4.3 L/kg	2.16 L/h/kg	5.2 h					
CCN(CC)CCNC(=O)c1ccc(NC(C)=O)cc1	0.58	7.9 h	1.9 L/kg	0.24 L/h/kg	1.9 L/kg	0.384 L/h/kg	2.9 L/kg	1.68 L/h/kg	6.4 h	0.9		0.913		
O=c1n(CCCN2CCN(c3cccc(Cl)c3)CC2)nc2ccccn12	0.12	6.2 h	0.52 L/kg	0.084 L/h/kg			1.76 L/kg	3.11 L/h/kg	7.3 h	0.08				
NC(=O)OC[C@@H]1C(=NC(=O)C(NOCC(=O)O)c2csc(N)n2)C(=O)N1S(=O)(=O)O (stereo partly drawn)	0.7	2 h	0.18 L/kg	0.09 L/h/kg	0.1 L/kg	0.33 L/h/kg	0.1 L/kg	1.32 L/h/kg	1.6 h	0.72	0.12 L/kg	0.89	0.27 L/h/kg	0.76
COc1nc(N)nc2c1ncn2[C@@H]1O[C@H](CO)[C@@H](O)[C@@H]1O		1 h	4.9 L/kg	4.86 L/h/kg					0.5 h		1.3 L/kg		2.52 L/h/kg	
O=C1c2c(O)ccc(O)c2C(=O)c2c(NCCNCCO)ccc(NCCNCCO)c21		25 h	12 L/kg	0.474 L/h/kg	26.6 L/kg	0.6 L/h/kg			53 h	0.25				
CCn1cc(C(=O)O)c(=O)c2cc(F)c(N3CCNCC3)nc21		6.2 h	2 L/kg	0.324 L/h/kg			1.8 L/kg	2.56 L/h/kg	5.1 h	0.8				
CCS(=O)(=O)CCn1c([N+](=O)[O-])cnc1C		16 h	0.59 L/kg	0.036 L/h/kg	0.89 L/kg	0.1 L/h/kg			13 h					
CCCCCNC(=O)c1coc([C@H]2[C@@H](Cc3ccccc3CCC(=O)O)[C@@H]3CC[C@H]2O3)n1		11 h	4.4 L/kg	0.384 L/h/kg	11 L/kg	3.9 L/h/kg	2.8 L/kg	5.25 L/h/kg	22 h		5.5 L/kg		1.15 L/h/kg	
CC(=O)[C@]1(O)Cc2c(O)c3c(c(O)c2[C@@H](O[C@H]2C[C@H](N)[C@H](O)[C@H](C)O2)C1)C(=O)c1ccccc1C3=O		26 h	38 L/kg	1.44 L/h/kg	34.5 L/kg		36.5 L/kg	4.71 L/h/kg	16 h	0.076				
CC1=C(C(=O)O)N2C(=O)C(NC(=O)C(N)C3=CCC=CC3)[C@H]2SC1 (stereo partly drawn)		1.1 h	0.21 L/kg	0.198 L/h/kg			1.1 L/kg	1.3 L/h/kg	0.85 h					
Nc1ncn([C@H]2C[C@H](O)[C@@H](CO)O2)c(=O)n1		0.59 h	4.6 L/kg	7.8 L/h/kg	0.85 L/kg	0.516 L/h/kg	1.8 L/kg	0.474 L/h/kg	0.58 h					
COc1cc(NS(C)(=O)=O)ccc1Nc1c2ccccc2nc2ccccc12	0.1	6.2 h	1.6 L/kg	0.258 L/h/kg	2.8 L/kg	0.96 L/h/kg	4.5 L/kg	4.98 L/h/kg	4.7 h	0.029		0.081		
CC(C)(C)NC(=O)C1CN(Cc2cccnc2)CCN1C[C@@H](O)CC(Cc1ccccc1)C(=O)N[C@H]1c2ccccc2C[C@H]1O (stereo partly drawn)		0.76 h	0.82 L/kg		0.73 L/kg	0.9 L/h/kg	2.2 L/kg	5.34 L/h/kg	1 h		1.45 L/kg		2.14 L/h/kg	
C=c1cc(C)[nH]c1=Cc1c(O)[nH]c2ccccc12	0.007	1.17 h	0.98 L/kg	0.84 L/h/kg	1.4 L/kg	3.12 L/h/kg	1.6 L/kg	2.7 L/h/kg	0.83 h	0.008	1.63 L/kg		1.66 L/h/kg	
Cc1ccc(C(=O)c2cc(O)c(O)c([N+](=O)[O-])c2)cc1		1.1 h	0.12 L/kg	0.114 L/h/kg	0.16 L/kg	0.114 L/h/kg	0.21 L/kg	0.528 L/h/kg	1.1 h	0.0012				
CC(C)NCC(O)COc1cccc2[nH]ccc12 (stereo not drawn)		2.6 h	1.2 L/kg		17 L/kg		1.36 L/kg		2.2 h					
COc1cccc2c1C(=O)c1c(O)c3c(c(O)c1C2=O)C[C@@](O)(C(=O)CO)C[C@@H]3O[C@H]1C[C@H](N)[C@H](O)[C@H](C)O1		24 h	22 L/kg	0.9 L/h/kg	31.6 L/kg	0.476 L/h/kg	5.5 L/kg	1.94 L/h/kg	32 h					
Cn1c(=O)c2c(ncn2C)n(C)c1=O		7.5 h	0.63 L/kg	0.084 L/h/kg	0.76 L/kg	0.141 L/h/kg	0.92 L/kg	0.75 L/h/kg	4.9 h		0.83 L/kg		0.184 L/h/kg	
O=C(O)c1cc(-c2ccc(F)cc2F)ccc1O		14 h	0.097 L/kg	0.006 L/h/kg			0.15 L/kg	0.0912 L/h/kg	10 h					
CCN1CCN(C(=O)NC(C(=O)NC2C(=O)N3C(C(=O)O)C(C)(C)S[C@H]23)c2ccccc2)C(=O)C1=O (stereo partly drawn)	0.61	1.1 h	0.27 L/kg		0.24 L/kg	0.396 L/h/kg	0.39 L/kg	1.06 L/h/kg	0.96 h		0.26 L/kg	0.84	0.432 L/h/kg	0.95
CON=C(C(=O)NC1C(=O)N2C(C(=O)O)=C(COC(N)=O)CS[C@H]12)c1ccco1 (stereo partly drawn)		1.1 h	0.15 L/kg	0.132 L/h/kg	1.5 L/kg	0.3 L/h/kg			1.1 h					
C[C@@H](O)C1C(=O)N2C(C(=O)O)=C(COC(N)=O)S[C@H]12 (stereo partly drawn)	0.5	0.54 h	0.24 L/kg	0.453 L/h/kg	0.22 L/kg	0.444 L/h/kg	0.05 L/kg	0.93 L/h/kg	0.54 h	0.72	0.14 L/kg	0.95	0.279 L/h/kg	0.56
